Assay results: PubChem BioAssay AID256 (DTP/NCI, 2004)
Inconclusive results and toxic doses are left out.

Tested on: CD2F1 mice, L1210 leukemia ip, survival T/C
Test: NCI In Vivo Anticancer Drug Screen. Data for tumor model L1210 Leukemia (intraperitoneal) in CD2F1 (CDF1) mice
Settings: higher = longer survival
Summary of the method: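 Implant tumor; dose compound or vehicle; measure endpoint in both groups; report treated divided by control.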

[1] = endpoint: mean survival time, dose: 100.0 mg/kg/injection, schedule: Q04DX003 (ip), vehicle: saline with Tween-80
[2] = endpoint: mean survival time, dose: 200.0 mg/kg/injection, schedule: Q04DX003 (ip), vehicle: saline with Tween-80
[3] = endpoint: mean survival time, dose: 50.0 mg/kg/injection, schedule: Q04DX002 (ip), vehicle: saline with Tween-80
[4] = endpoint: mean survival time, dose: 100.0 mg/kg/injection, schedule: Q04DX002 (ip), vehicle: saline with Tween-80
[5] = endpoint: mean survival time, dose: 200.0 mg/kg/injection, schedule: Q04DX002 (ip), vehicle: saline with Tween-80
[6] = endpoint: mean survival time, dose: 100.0 mg/kg/injection, schedule: Q01DX009 (ip), vehicle: saline
[7] = endpoint: mean survival time, dose: 200.0 mg/kg/injection, schedule: Q01DX009 (ip), vehicle: saline
[8] = endpoint: mean survival time, dose: 400.0 mg/kg/injection, schedule: Q01DX009 (ip), vehicle: saline
[9] = endpoint: mean survival time, dose: 100.0 mg/kg/injection, schedule: Q01DX001 (ip), vehicle: Klucel (hydroxypropylcellulose) (HPC)
[10] = endpoint: mean survival time, dose: 200.0 mg/kg/injection, schedule: Q01DX001 (ip), vehicle: Klucel (hydroxypropylcellulose) (HPC)
[11] = endpoint: mean survival time, dose: 400.0 mg/kg/injection, schedule: Q01DX001 (ip), vehicle: Klucel (hydroxypropylcellulose) (HPC)
[12] = endpoint: mean survival time, dose: 100.0 mg/kg/injection, schedule: Q04DX003 (ip), vehicle: saline
[13] = endpoint: mean survival time, dose: 200.0 mg/kg/injection, schedule: Q04DX003 (ip), vehicle: saline
[14] = endpoint: mean survival time, dose: 400.0 mg/kg/injection, schedule: Q04DX003 (ip), vehicle: saline
[15] = endpoint: mean survival time, dose: 100.0 mg/kg/injection, schedule: Q01DX009 (ip), vehicle: saline with Tween-80
[16] = endpoint: mean survival time, dose: 200.0 mg/kg/injection, schedule: Q01DX009 (ip), vehicle: saline with Tween-80
[17] = endpoint: mean survival time, dose: 400.0 mg/kg/injection, schedule: Q01DX009 (ip), vehicle: saline with Tween-80

[NH-]c1ncnc2c1ncn2C1OC(CO)C(O)C1O.[NH-]c1ncnc2c1ncn2C1OC(CO)C(O)C1O.[Pt+2] (configuration not stated)
T/C (endpoint: mean survival time, dose: 12.5 mg/kg/injection, schedule: Q04DX003 (ip), vehicle: saline with Tween-80): 92 % of control
T/C (endpoint: mean survival time, dose: 25.0 mg/kg/injection, schedule: Q04DX003 (ip), vehicle: saline with Tween-80): 95 % of control
T/C (endpoint: mean survival time, dose: 50.0 mg/kg/injection, schedule: Q04DX003 (ip), vehicle: saline with Tween-80): 92 % of control
T/C [1]: 89 % of control
T/C [2]: 86 % of control

CC(=O)OCC1OC([Se][As](C)C)C(OC(C)=O)C(OC(C)=O)C1OC(C)=O (configuration not stated)
T/C (endpoint: mean survival time, dose: 3.13 mg/kg/injection, schedule: Q01DX009 (ip), vehicle: saline with Tween-80): 98 % of control
T/C (endpoint: mean survival time, dose: 6.25 mg/kg/injection, schedule: Q01DX001 (ip), vehicle: saline with Tween-80): 95 % of control
T/C (endpoint: mean survival time, dose: 6.25 mg/kg/injection, schedule: Q01DX009 (ip), vehicle: saline with Tween-80): 96 % of control
T/C (endpoint: mean survival time, dose: 12.5 mg/kg/injection, schedule: Q01DX001 (ip), vehicle: saline with Tween-80): 97 % of control
T/C (endpoint: mean survival time, dose: 12.5 mg/kg/injection, schedule: Q01DX009 (ip), vehicle: saline with Tween-80): 96 % of control

N#Cc1nc(-c2ccco2)c(-c2ccco2)nc1C#N
T/C (endpoint: mean survival time, dose: 25.0 mg/kg/injection, schedule: Q04DX002 (ip), vehicle: saline with Tween-80): 102 % of control
T/C [3]: 90 % of control
T/C (endpoint: mean survival time, dose: 100.0 mg/kg/injection, schedule: Q01DX001 (ip), vehicle: saline with Tween-80): 96 % of control
T/C [4]: 90 % of control

O=[N+]([O-])c1cccc(/C=N\[n+]2ccccc2)c1
T/C [3]: 97 % of control
T/C [4]: 100 % of control
T/C [5]: 100 % of control

CC(=O)O.CC(=O)O.[Co].[NH2-].[NH2-].[NH2-].[NH2-]
T/C (endpoint: mean survival time, dose: 6.25 mg/kg/injection, schedule: Q04DX002 (ip), vehicle: saline with Tween-80): 93 % of control
T/C (endpoint: mean survival time, dose: 12.5 mg/kg/injection, schedule: Q04DX002 (ip), vehicle: saline with Tween-80): 87 % of control

CC1(C)N=C(N)N=C(N)N1c1cccc(OCCCC#N)c1
T/C (endpoint: mean survival time, dose: 25.0 mg/kg/injection, schedule: Q01DX001 (ip), vehicle: saline): 88 % of control
T/C (endpoint: mean survival time, dose: 50.0 mg/kg/injection, schedule: Q01DX001 (ip), vehicle: saline): 106 % of control
T/C (endpoint: mean survival time, dose: 100.0 mg/kg/injection, schedule: Q01DX001 (ip), vehicle: saline): 101 % of control

c1cc[c]([Sn]([NH]c2ncnc3[nH]cnc23)([NH]c2ncnc3[nH]cnc23)[c]2ccccc2)cc1
T/C (endpoint: median survival time, dose: 12.5 mg/kg/injection, schedule: Q01DX009 (ip), vehicle: saline with Tween-80): 102 % of control
T/C (endpoint: median survival time, dose: 12.5 mg/kg/injection, schedule: Q01DX009 (ip), vehicle: suspension in saline): 98 % of control
T/C (endpoint: median survival time, dose: 25.0 mg/kg/injection, schedule: Q01DX009 (ip), vehicle: saline with Tween-80): 113 % of control
T/C (endpoint: median survival time, dose: 25.0 mg/kg/injection, schedule: Q01DX009 (ip), vehicle: saline): 154 % of control
T/C (endpoint: median survival time, dose: 25.0 mg/kg/injection, schedule: Q01DX009 (ip), vehicle: suspension in saline): 100 % of control
T/C (endpoint: median survival time, dose: 50.0 mg/kg/injection, schedule: Q01DX009 (ip), vehicle: saline with Tween-80): 118 % of control
T/C (endpoint: median survival time, dose: 50.0 mg/kg/injection, schedule: Q01DX009 (ip), vehicle: suspension in saline): 102 % of control
T/C (endpoint: median survival time, dose: 100.0 mg/kg/injection, schedule: Q01DX009 (ip), vehicle: saline with Tween-80): 112 % of control
T/C (endpoint: median survival time, dose: 100.0 mg/kg/injection, schedule: Q01DX009 (ip), vehicle: saline): 166 % of control
T/C (endpoint: median survival time, dose: 100.0 mg/kg/injection, schedule: Q01DX009 (ip), vehicle: suspension in saline): 102 % of control
T/C (endpoint: median survival time, dose: 200.0 mg/kg/injection, schedule: Q01DX009 (ip), vehicle: saline with Tween-80): 86 % of control
T/C (endpoint: median survival time, dose: 200.0 mg/kg/injection, schedule: Q01DX009 (ip), vehicle: saline): 203 % of control
T/C (endpoint: median survival time, dose: 200.0 mg/kg/injection, schedule: Q01DX009 (ip), vehicle: suspension in saline): 112 % of control

C[N+](C)(C)CCO
T/C [6]: 96 % of control
T/C [7]: 102 % of control
T/C [8]: 90 % of control

Cn1c(=O)c2[nH]c(Cl)nc2n(C)c1=O
T/C (endpoint: mean survival time, dose: 12.5 mg/kg/injection, schedule: Q01DX005 (ip), vehicle: water): 92 % of control
T/C (endpoint: mean survival time, dose: 25.0 mg/kg/injection, schedule: Q01DX005 (ip), vehicle: water): 93 % of control
T/C (endpoint: mean survival time, dose: 50.0 mg/kg/injection, schedule: Q01DX005 (ip), vehicle: water): 103 % of control
T/C (endpoint: mean survival time, dose: 100.0 mg/kg/injection, schedule: Q01DX005 (ip), vehicle: water): 87 % of control

O=C([O-])c1ccccc1[I+]c1ccccc1
T/C [9]: 107 % of control
T/C (endpoint: mean survival time, dose: 100.0 mg/kg/injection, schedule: Q01DX009 (ip), vehicle: saline sonified): 102 % of control
T/C [1]: 103 % of control
T/C [10]: 93 % of control
T/C (endpoint: mean survival time, dose: 200.0 mg/kg/injection, schedule: Q01DX009 (ip), vehicle: saline sonified): 94 % of control
T/C [2]: 101 % of control
T/C [11]: 111 % of control
T/C (endpoint: mean survival time, dose: 400.0 mg/kg/injection, schedule: Q01DX009 (ip), vehicle: saline sonified): 102 % of control
T/C (endpoint: mean survival time, dose: 400.0 mg/kg/injection, schedule: Q04DX003 (ip), vehicle: saline with Tween-80): 101 % of control

CC1CC(C)SC(C(C)(C)C)S1 (configuration not stated)
T/C (endpoint: mean survival time, dose: 12.5 mg/kg/injection, schedule: Q04DX002 (ip), vehicle: saline): 105 % of control
T/C (endpoint: mean survival time, dose: 25.0 mg/kg/injection, schedule: Q04DX002 (ip), vehicle: saline): 97 % of control
T/C (endpoint: mean survival time, dose: 50.0 mg/kg/injection, schedule: Q04DX002 (ip), vehicle: saline): 102 % of control

CO[C@]12[C@@H](COC(=O)NCCO)C3=C(C(=O)C(C)=C(N)C3=O)N1C[C@@H]1[C@H]2N1C (some centres not stated)
T/C (endpoint: mean survival time, dose: 12.5 mg/kg/injection, schedule: Q01DX009 (ip), vehicle: saline): 112 % of control
T/C (endpoint: mean survival time, dose: 50.0 mg/kg/injection, schedule: Q01DX009 (ip), vehicle: saline): 119 % of control
T/C (endpoint: mean survival time, dose: 75.0 mg/kg/injection, schedule: Q01DX001 (ip), vehicle: saline): 114 % of control
T/C (endpoint: mean survival time, dose: 150.0 mg/kg/injection, schedule: Q01DX001 (ip), vehicle: saline): 116 % of control
T/C [7]: 112 % of control

Nc1nc(N)c(N=O)c(N)n1
T/C [6]: 98 % of control
T/C [12]: 103 % of control
T/C [7]: 97 % of control
T/C [13]: 97 % of control
T/C [8]: 100 % of control
T/C [14]: 102 % of control

S=c1[nH]ccn1-c1cccc(Br)c1
T/C [15]: 112 % of control
T/C [16]: 103 % of control
T/C [17]: 112 % of control

Cc1c(C=NC(=O)c2ccccc2)c2ccccc2n1C
T/C [4]: 100 % of control
T/C [5]: 108 % of control
T/C (endpoint: mean survival time, dose: 400.0 mg/kg/injection, schedule: Q04DX002 (ip), vehicle: saline with Tween-80): 96 % of control

O=C(O)CC[P+](c1ccccc1)(c1ccccc1)c1ccccc1
T/C [15]: 95 % of control
T/C [16]: 92 % of control
T/C [17]: 89 % of control

CC(C)(C)OC(=O)C(CC(=O)O)=C(c1ccccc1)c1ccccc1
T/C (endpoint: mean survival time, dose: 100.0 mg/kg/injection, schedule: Q01DX009 (ip), vehicle: Klucel (hydroxypropylcellulose) (HPC)): 102 % of control
T/C (endpoint: mean survival time, dose: 100.0 mg/kg/injection, schedule: Q04DX003 (ip), vehicle: Klucel (hydroxypropylcellulose) (HPC)): 101 % of control
T/C (endpoint: mean survival time, dose: 200.0 mg/kg/injection, schedule: Q01DX009 (ip), vehicle: Klucel (hydroxypropylcellulose) (HPC)): 100 % of control
T/C (endpoint: mean survival time, dose: 200.0 mg/kg/injection, schedule: Q04DX003 (ip), vehicle: Klucel (hydroxypropylcellulose) (HPC)): 103 % of control
T/C (endpoint: mean survival time, dose: 400.0 mg/kg/injection, schedule: Q01DX009 (ip), vehicle: Klucel (hydroxypropylcellulose) (HPC)): 104 % of control
T/C (endpoint: mean survival time, dose: 400.0 mg/kg/injection, schedule: Q04DX003 (ip), vehicle: Klucel (hydroxypropylcellulose) (HPC)): 109 % of control

O=C(O)C(O)C(O)C(O)CO (configuration not stated)
T/C [12]: 95 % of control
T/C [13]: 105 % of control
T/C [14]: 97 % of control

CC1(C(=O)Sc2ccccc2)OC1(C)c1ccccc1 (configuration not stated)
T/C [9]: 97 % of control
T/C [10]: 108 % of control
T/C [11]: 97 % of control

O=[N+]([O-])c1ccc(S(=O)(=O)F)c(Cl)c1
T/C [15]: 100 % of control
T/C [12]: 100 % of control
T/C [16]: 100 % of control
T/C [13]: 101 % of control
T/C [17]: 100 % of control
T/C [14]: 101 % of control
